Data published in the supplement of paper PMC11208160.

test: recombinant UMI read abundance after kanamycin selection (control-corrected) (log10(CPM+1)); higher = more efficient recombination; extreme values may be limits of the assay; sequences stand for … in AGTGCAGAGAAAATCGGCCAGTTTTCTCTGCCTGCAGTCCGCATGCCGTGGGACCCCTTGGGTTCTAACCTGTTGCCTAGATTTATGCAGCGGACTGCCTTTCTCCCAAAGTGATAAACCGG…AGGTTGGTTTCACT; site = the 11-nt donor
Summary of the method: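 Sequenced counts of recombinant UMIs were turned into CPM, averaged across replicates and scaled with control-derived factors. The reported figure is log10(CPM+1). Those UMIs, each 12 nt long, tagged donor and donor-binding-loop pairs on a plasmid with a promoterless kanamycin gene, screened as a pool in Escherichia coli with IPTG (0.07 mM) plus kanamycin or without selection.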
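Note: IS621 bridge recombinase in Escherichia coli cells against a fixed T5 target plasmid.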

Sequence	recombinant UMI read abundance (log10)
TCCTAGCCATGGACCGGTTTTCCCGGTAATCCGTATTTGCC (site TCCTAGCCTGG)	0
TCGACTCCATGGACCGGTTTTCCCGGTAATCCGTATTTGCC (site TCGACTCCTGG)	0
TCGAGCGCATGGACCGGTTTTCCCGGTAATCCGTATTTGCT (site TCGAGCGCTAG)	1.5
TCGAGGACATGGACCGGTTTTCCCGGTAATCCGTATTTGGC (site TCGAGGACTGC)	0
TCGAGTCCATGGACCGGTTTTCCCGGTAATCCGTATTTGGC (site TCGAGTCCTGC)	0
TCGCAGCCATGGACCGGTTTTCCCGGTAATCCGTATTTGGA (site AAAGTCTCTCG)	0
TCGCATTCATGGACCGGTTTTCCCGGTAATCCGTATTTGTC (site TCGCATTCTGA)	0
TCGCCGCCATGGACCGGTTTTCCCGGTAATCCGTATTTGGG (site TCGCCGCCTCC)	0.00807
TCGCCGGCATGGACCGGTTTTCCCGGTAATCCGTATTTGGC (site TAGCCGGCTGC)	0
TCGCCGGCATGGACCGGTTTTCCCGGTAATCCGTATTTGGC (site TCGCCGGCTGC)	0
TCGCCGGCATGGACCGGTTTTCCCGGTAATCCGTATTTGGC (site TGGCCGGCTGC)	0
TCGCCGGCATGGACCGGTTTTCCCGGTAATCCGTATTTGGC (site TTGCCGGCTGC)	0
TCGCTAGCATGGACCGGTTTTCCCGGTAATCCGTATTTGCC (site TCGCTAGCTGG)	0
TCGCTGTCATGGACCGGTTTTCCCGGTAATCCGTATTTGTG (site TCGCTGTCTCA)	0.936
TCGGAGACATGGACCGGTTTTCCCGGTAATCCGTATTTGCG (site TCAGAGACTCG)	1.72
TCGGAGACATGGACCGGTTTTCCCGGTAATCCGTATTTGCG (site TCCGAGACTCG)	0.44
TCGGAGACATGGACCGGTTTTCCCGGTAATCCGTATTTGCG (site TCGGAGACTCG)	2.41
TCGGAGACATGGACCGGTTTTCCCGGTAATCCGTATTTGCG (site TCTGAGACTCG)	0.976
TCGGCGGCATGGACCGGTTTTCCCGGTAATCCGTATTTGAG (site TCGGCGGCTCT)	0.464
TCGGGTACATGGACCGGTTTTCCCGGTAATCCGTATTTGAC (site TCGGGTACTGT)	0
TCGTATTCATGGACCGGTTTTCCCGGTAATCCGTATTTGTT (site TCGTATTCTAA)	1.24
TCGTCTACATGGACCGGTTTTCCCGGTAATCCGTATTTGAT (site TCGTCTACTAT)	0.00771
TCGTGATCATGGACCGGTTTTCCCGGTAATCCGTATTTGGC (site TCGTGATCTGC)	0
TCGTTAACATGGACCGGTTTTCCCGGTAATCCGTATTTGTT (site TCGTTAACTAA)	0.00894
TCGTTCACATGGACCGGTTTTCCCGGTAATCCGTATTTGGA (site TCGTTCACTTC)	0.0102

Sequence	recombinant UMI read abundance (log10)
TCGTTCTCATGGACCGGTTTTCCCGGTAATCCGTATTTGGG (site TCGTTCTCTCC)	0.00264
TCTAAATCATGGACCGGTTTTCCCGGTAATCCGTATTTGTT (site TCTAAATCTAA)	0
TCTAAGACATGGACCGGTTTTCCCGGTAATCCGTATTTGTG (site TCTAAGACTCA)	0.00606
TCTAAGGCATGGACCGGTTTTCCCGGTAATCCGTATTTGGT (site TCTAAGGCTAC)	0.43
TCTACACCATGGACCGGTTTTCCCGGTAATCCGTATTTGGT (site TCTACACCTAC)	0.00817
TCTGAAACATGGACCGGTTTTCCCGGTAATCCGTATTTGTG (site TCTGAAACTCA)	0.00806
TCTGAGACATGGACCGGTTTTCCCGGTAATCCGTATTTGCC (site TCTGAGACTGG)	0.0914
TCTGAGACATGGACCGGTTTTCCCGGTAATCCGTATTTGCG (site TCAGAGACTCG)	0
TCTGAGACATGGACCGGTTTTCCCGGTAATCCGTATTTGCG (site TCCGAGACTCG)	0.022
TCTGAGACATGGACCGGTTTTCCCGGTAATCCGTATTTGCG (site TCGGAGACTCG)	0.285
TCTGAGACATGGACCGGTTTTCCCGGTAATCCGTATTTGCG (site TCTGAGACTCG)	0.476
TCTGCAGCATGGACCGGTTTTCCCGGTAATCCGTATTTGTA (site TCTGCAGCTTA)	0
TCTGCCCCATGGACCGGTTTTCCCGGTAATCCGTATTTGGG (site TCTGCCCCTCC)	0.00716
TCTGCCGCATGGACCGGTTTTCCCGGTAATCCGTATTTGAG (site TCTGCCGCTCT)	0.0275
TCTGGATCATGGACCGGTTTTCCCGGTAATCCGTATTTGCT (site TCTGGATCTAG)	0
TCTGGGTCATGGACCGGTTTTCCCGGTAATCCGTATTTGTT (site TCTGGGTCTAA)	0.167
TCTGGTCCATGGACCGGTTTTCCCGGTAATCCGTATTTGAG (site TCTGGTCCTCT)	0.00736
TCTGTCGCATGGACCGGTTTTCCCGGTAATCCGTATTTGGC (site TCTGTCGCTGC)	0.00952
TCTGTGGCATGGACCGGTTTTCCCGGTAATCCGTATTTGAC (site TCTGTGGCTGT)	0
TCTTCGACATGGACCGGTTTTCCCGGTAATCCGTATTTGAG (site TCTTCGACTCT)	0.0148
TCTTCTTCATGGACCGGTTTTCCCGGTAATCCGTATTTGAA (site TCTTCTTCTTT)	0.00225
TGAAAGGCATGGACCGGTTTTCCCGGTAATCCGTATTTGCT (site AGAAAGGCTAG)	0.855
TGAAAGGCATGGACCGGTTTTCCCGGTAATCCGTATTTGCT (site CGAAAGGCTAG)	0.708
TGAAAGGCATGGACCGGTTTTCCCGGTAATCCGTATTTGCT (site GGAAAGGCTAG)	0
TGAAAGGCATGGACCGGTTTTCCCGGTAATCCGTATTTGCT (site TGAAAGGCTAG)	2.34

Sequence	recombinant UMI read abundance (log10)
TGAAGAACATGGACCGGTTTTCCCGGTAATCCGTATTTGGC (site TGAAGAACTGC)	2.29
TGAAGTCCATGGACCGGTTTTCCCGGTAATCCGTATTTGTA (site TAAAGTCCTTA)	0.00928
TGAAGTCCATGGACCGGTTTTCCCGGTAATCCGTATTTGTA (site TCAAGTCCTTA)	1.44
TGAAGTCCATGGACCGGTTTTCCCGGTAATCCGTATTTGTA (site TGAAGTCCTTA)	0.591
TGAAGTCCATGGACCGGTTTTCCCGGTAATCCGTATTTGTA (site TTAAGTCCTTA)	0.888
TGAATACCATGGACCGGTTTTCCCGGTAATCCGTATTTGTC (site TGAATACCTGA)	0
TGAATTTCATGGACCGGTTTTCCCGGTAATCCGTATTTGAG (site TGAATTTCTCT)	0.492
TGACCATCATGGACCGGTTTTCCCGGTAATCCGTATTTGCT (site CGATCATCTAG)	0
TGACCATCATGGACCGGTTTTCCCGGTAATCCGTATTTGCT (site TGACCATCTAG)	2.24
TGACCGGCATGGACCGGTTTTCCCGGTAATCCGTATTTGGG (site TGACCGGCTCC)	0.00617
TGACGTACATGGACCGGTTTTCCCGGTAATCCGTATTTGTC (site TGACGTACTGA)	0.893
TGAGAACCATGGACCGGTTTTCCCGGTAATCCGTATTTGAT (site GACATTGCTCA)	0.0061
TGAGCCTCATGGACCGGTTTTCCCGGTAATCCGTATTTGAC (site TGAGCCTCTGT)	2.84
TGAGCTGCATGGACCGGTTTTCCCGGTAATCCGTATTTGTG (site TAAGCTGCTCA)	0.038
TGAGCTGCATGGACCGGTTTTCCCGGTAATCCGTATTTGTG (site TCAGCTGCTCA)	0
TGAGCTGCATGGACCGGTTTTCCCGGTAATCCGTATTTGTG (site TGAGCTGCTCA)	0.639
TGAGCTGCATGGACCGGTTTTCCCGGTAATCCGTATTTGTG (site TTAGCTGCTCA)	0.0107
TGAGGTCCATGGACCGGTTTTCCCGGTAATCCGTATTTGGA (site TGAGGTCCTTC)	0.172
TGAGTAGCATGGACCGGTTTTCCCGGTAATCCGTATTTGTA (site TGAGTAGCTTA)	2.48
TGAGTGGCATGGACCGGTTTTCCCGGTAATCCGTATTTGGT (site AGAGTGGCTAC)	0.339
TGAGTGGCATGGACCGGTTTTCCCGGTAATCCGTATTTGGT (site CGAGTGGCTAC)	0.605
TGAGTGGCATGGACCGGTTTTCCCGGTAATCCGTATTTGGT (site GGAGTGGCTAC)	0.0161
TGAGTGGCATGGACCGGTTTTCCCGGTAATCCGTATTTGGT (site TGAGTGGCTAC)	0.902
TGAGTTGCATGGACCGGTTTTCCCGGTAATCCGTATTTGCA (site TGAGTTGCTTG)	1.47
TGATAGCCATGGACCGGTTTTCCCGGTAATCCGTATTTGAG (site TGATAGCCTCT)	0.0234
